Measurements reported in patent publication US12421254B2, “KRAS modulators and uses thereof” (Quanta Therapeutics, Inc., priority 2023, dated 2025).
pIC50: −log10 of the molar value.

Columns and labels:
[1] = molecular target: GST-tagged KRAS-G12V (2-169) (Homo sapiens, UniProt P01116, G12V); assay: Nucleotide exchange assay (NEA), SOS-mediated, HTRF, KRAS G12V; format: biochemical; conditions: Table 4; IC50 extracted at 90 min; 80 nM SOS
In short: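 Exchange onto fluorescent GTP-DY-647P1 (150 nM final) catalysed by 80 nM SOS1cat was followed by Tb-anti-GST HTRF at RT for up to 90 min, after 1 h compound pre-incubation with 0.25 nM GST-tagged KRAS-G12V (2-169), pH 7.3. DMSO = 0%, no-SOS blank = 100%; 4-parameter IC50 taken at 90 min.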

[2] = molecular target: GST-tagged KRAS-G12D (2-169) (Homo sapiens, UniProt P01116, G12D); assay: Nucleotide exchange assay (NEA), SOS-mediated, HTRF, KRAS G12D; format: biochemical; conditions: Table 4; IC50 extracted at 30 min; 20 nM SOScat; read-out: NEA G12D IC50
GST-tagged KRAS-G12D (2-169), sequence (P01116 2-169 isoform P01116-2 G12D): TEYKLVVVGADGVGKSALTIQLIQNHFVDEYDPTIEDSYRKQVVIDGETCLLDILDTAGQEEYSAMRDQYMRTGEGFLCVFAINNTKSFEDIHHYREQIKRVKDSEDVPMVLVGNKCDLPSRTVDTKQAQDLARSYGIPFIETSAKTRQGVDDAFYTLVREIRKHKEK
In short: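 SOS1cat-driven loading of fluorescent GTP-DY-647P1 (150 nM) onto GST-KRAS-G12D (2-169, 0.25 nM) read by time-resolved FRET; SOScat 20 nM, compound preincubated with KRAS 1 h at RT. Signal blanked to no-SOS reactions, normalized to DMSO; IC50 fitted from the 30-min read.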

[3] = test system: phospho-ERK in GP2D (KRAS-G12D) cells; assay: pERK In Cell Western (ICW) assay (Method B), GP2D; format: cell-based; conditions: GP2d, 3 h, Table 4
Description: pERK ICW is a high throughput screening assay to evaluate the cellular potency of mutant KRAS small molecule inhibitors. KRAS mutant cell lines AGS, GP2D (KRAS-G12D) as well as SW620 (KRAS-G12V) were purchased from ATCC and maintained respectively in RPMI/DMEM/RPMI medium supplemented with 10% fetal bovine serum.
Cells grown in exponential phase were trypsinized, resuspended in fresh media, and viable cells were counted using a cell counter with Trypan Blue (BioRad TC20). Cells were seeded into 384-well plate (Greiner 781091) at density of 5,000 cells/well for AGS and 10,000 cells/well for GP2D/SW620 and allowed to grow overnight in a 37° C. CO2 incubator. The next day, compounds were dispensed into wells with a ½ log, 9-point serial dilution using a Tecan D300e dispenser and incubated for 3 hours in a 37° C. CO2 incubator. Cells were then fixed with paraformaldehyde (Electron Microscopy Sciences, 15710, 4% final concentration) for 30 min, permeabilized with wash buffer (1×PBS+0.1% Triton X-100) for 30 min and blocked with Odyssey blocking buffer (Li—COR 927-70001) for 1 hour, all at room temperature (RT). Phospho-ERK antibody (CST 4370L) was diluted 1:500 in Odyssey T20 (PBS) antibody diluent (Li—COR 927-75001) and incubated with cells overnight at 4° C. The next day, plates were washed 5× with wash buffer, incubated with IRDye 800 CW, Goat anti-Rabbit secondary antibody (Li—COR 926-32211, 1:800) and DRAQ5 (CST 4084L, 1:5,000) diluted in Odyssey T20 (PBS) antibody diluent for 1 hour, washed 5×, and imaged on an Odyssey CLx imaging system.
For data analysis, signal intensities from 800 (phosphor-ERK) and 700 (DRAQ5) channels were extracted, and phospho-ERK signals were normalized to DRAQ5 signals for each well and percent of blank control values were computed. Data were then imported into Graphpad Prism to compute half-maximal inhibitory concentrations (IC50) using a 4-parameter variable slope model. Z-factor for each plate was computed from signals derived from wells treated with either DMSO or 5 μM of control compound. AGS pERK ICW (Method B) IC50 (uM) values of selected compounds are depicted in Table 2 with compounds having a value ≥0.001 uM to 0.01 uM as ++++; ≥0.01 uM to 0.1 uM as +++; ≥0.1 uM to 1 uM as ++; ≥1 uM to 10 uM as + and ≥10 uM as NA.

[4] = test system: phospho-ERK in SW620 (KRAS-G12V) cells; assay: pERK In Cell Western (ICW) assay (Method B), SW620; format: cell-based; conditions: Homo sapiens, SW-620, 3 h, Table 4
In short: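 Read-out is In-Cell Western phospho-ERK signal divided by DRAQ5 per well, as percent of blank control, fitted with a 4-parameter variable-slope model for IC50. Compounds were dosed as 9-point half-log series for 3 h at 37°C on AGS, GP2D (G12D) or SW620 (G12V) cells plated the day before.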

GST-tagged KRAS-G12V (2-169), sequence (P01116 2-169 isoform P01116-2 G12V): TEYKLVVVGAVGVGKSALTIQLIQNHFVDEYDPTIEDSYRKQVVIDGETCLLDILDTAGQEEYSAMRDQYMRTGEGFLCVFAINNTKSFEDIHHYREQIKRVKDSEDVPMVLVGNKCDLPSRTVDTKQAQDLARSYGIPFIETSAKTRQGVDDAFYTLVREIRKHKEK

| Compound | pIC50 [1] | pIC50 [2] | pIC50 [3] | pIC50 [4] |
| --- | --- | --- | --- | --- |
| CCN(c1nc(OC[C@]2(CO)CCCN2C)nc(N2CC3(C2)SCc2sc(N)c(C#N)c23)n1)[C@H](C)c1cccnc1N [Compound 213, 2-amino-1′-[4-[[(1R)-1-(2-amino-3-pyridyl)ethyl]-ethyl-amino]-6-[[2-(hydroxymethyl)-1-methyl-pyrrolidin-2-yl]methoxy]-1,3,5-triazin-2-yl]spiro[6H-thieno[3,4-b]thiophene-4,3′-azetidine]-3-carbonitrile] | > 8.00 | > 8.00 | 7.00 to 8.00 | 7.00 to 8.00 |
| CC(c1cccnc1N)N(C)c1nc(OCC2(CN3CCOCC3)CC2)nc(N2CC3(CCc4sc(N)c(C#N)c43)C2)n1 (stereo not drawn) [Compound 97, 2-amino-1′-[4-[1-(2-amino-3-pyridyl)ethyl-methyl-amino]-6-[[1-(morpholinomethyl)cyclopropyl]methoxy]-1,3,5-triazin-2-yl]spiro[5,6-dihydrocyclopenta[b]thiophene-4,3′-azetidine]-3-carbonitrile] | > 8.00 | 7.00 to 8.00 | 4.70 to 6.00 | 6.00 to 7.00 |
| CC(CO)N(Cc1cccnc1N)c1nc(OC[C@@]23CCCN2C[C@H](F)C3)nc(N2CC3(CCc4sc(N)c(C#N)c43)C2)n1 (stereo partly drawn) [Compound 149, 2-amino-1′-[4-[(2-amino-3-pyridyl)methyl-(2-hydroxy-1-methyl-ethyl)amino]-6-[[(2R,8S)-2-fluoro-1,2,3,5,6,7-hexahydropyrrolizin-8-yl]methoxy]-1,3,5-triazin-2-yl]spiro[5,6-dihydrocyclopenta[b]thiophene-4,3′-azetidine]-3-carbonitrile] | > 8.00 | > 8.00 | 4.70 to 6.00 | 6.00 to 7.00 |
| C[C@@]1(O)CCCN(c2nc(OCC3(CN4CCOCC4)CC3)nc(N3CC4(C3)c3c(sc(N)c3C#N)C[C@@H]4F)n2)C1 [Compound 68, (5S)-2-amino-5-fluoro-1′-[4-[(3R)-3-hydroxy-3-methyl-1-piperidyl]-6-[[1-(morpholinomethyl)cyclopropyl]methoxy]-1,3,5-triazin-2-yl]spiro[5,6-dihydrocyclopenta[b]thiophene-4,3′-azetidine]-3-carbonitrile] | 7.00 to 8.00 | > 8.00 | 6.00 to 7.00 | 6.00 to 7.00 |
| N#CCC1C=C(F)CN(c2nc(OCC3(CN4CCOCC4)CC3)nc(N3CC4(CCc5sc(N)c(C#N)c54)C3)n2)C1 (stereo not drawn) [Compound 65, 2-amino-1′-[4-[3-(cyanomethyl)-5-fluoro-3,6-dihydro-2H-pyridin-1-yl]-6-[[1-(morpholinomethyl)cyclopropyl]methoxy]-1,3,5-triazin-2-yl]spiro[5,6-dihydrocyclopenta[b]thiophene-4,3′-azetidine]-3-carbonitrile] | 7.00 to 8.00 | 6.00 to 7.00 | 4.70 to 6.00 | 4.70 to 6.00 |
| CN(Cc1cncs1)c1nc(OC[C@@]23CCCN2C[C@H](F)C3)nc(N2CC3(CCc4sc(N)c(C#N)c43)C2)n1 [Compound 152, 2-amino-1′-[4-[[(2R,8S)-2-fluoro-1,2,3,5,6,7-hexahydropyrrolizin-8-yl]methoxy]-6-[methyl(thiazol-5-ylmethyl)amino]-1,3,5-triazin-2-yl]spiro[5,6-dihydrocyclopenta[b]thiophene-4,3′-azetidine]-3-carbonitrile] | 6.00 to 7.00 | 4.70 to 6.00 | 4.70 to 6.00 | 4.70 to 6.00 |
| CC(c1nccnc1N)N(CCO)c1nc(OC[C@@]23CCCN2C[C@H](F)C3)nc(N2CC3(CCc4sc(N)c(C#N)c43)C2)n1 (stereo partly drawn) [Compound 124, 2-amino-1′-[4-[1-(3-aminopyrazin-2-yl)ethyl-(2-hydroxyethyl)amino]-6-[[(2R,8S)-2-fluoro-1,2,3,5,6,7-hexahydropyrrolizin-8-yl]methoxy]-1,3,5-triazin-2-yl]spiro[5,6-dihydrocyclopenta[b]thiophene-4,3′-azetidine]-3-carbonitrile] | > 8.00 | > 8.00 | 6.00 to 7.00 | 7.00 to 8.00 |
| N#Cc1c(N)sc2c1C1(CC2)CN(c2nc(OC[C@@]34CCCN3C[C@H](F)C4)nc(N3CCc4n[nH]c(N)c4C3)n2)C1 [Compound 35, 2-amino-1′-[4-(3-amino-2,4,6,7-tetrahydropyrazolo[4,3-c]pyridin-5-yl)-6-[[(2R,8S)-2-fluoro-1,2,3,5,6,7-hexahydropyrrolizin-8-yl]methoxy]-1,3,5-triazin-2-yl]spiro[5,6-dihydrocyclopenta[b]thiophene-4,3′-azetidine]-3-carbonitrile] | 4.70 to 6.00 | 6.00 to 7.00 | 4.70 to 6.00 | ≤ 4.70 |
| CC(O)CN(Cc1cccnc1N)c1nc(OC[C@@]23CCCN2C[C@H](F)C3)nc(N2CC3(CCc4sc(N)c(C#N)c43)C2)n1 (stereo partly drawn) [Compound 141, 2-amino-1′-[4-[(2-amino-3-pyridyl)methyl-(2-hydroxypropyl)amino]-6-[[(2R,8S)-2-fluoro-1,2,3,5,6,7-hexahydropyrrolizin-8-yl]methoxy]-1,3,5-triazin-2-yl]spiro[5,6-dihydrocyclopenta[b]thiophene-4,3′-azetidine]-3-carbonitrile] | > 8.00 | 7.00 to 8.00 | 4.70 to 6.00 | 6.00 to 7.00 |
| C[C@@]1(O)CCCN(c2nc(OC[C@@]34CCCN3C[C@H](F)C4)nc(N3CC4(C3)SCc3sc(N)c(C#N)c34)n2)C1 [Compound 49, 2-amino-1′-[4-[[(2R,8S)-2-fluoro-1,2,3,5,6,7-hexahydropyrrolizin-8-yl]methoxy]-6-[(3R)-3-hydroxy-3-methyl-1-piperidyl]-1,3,5-triazin-2-yl]spiro[6H-thieno[2,3-c]thiophene-4,3′-azetidine]-3-carbonitrile] | > 8.00 | > 8.00 | > 8.00 | 6.00 to 7.00 |
| CCN(c1nc(OCC23CCCN2CCC3)nc(N2CC3(C2)SCc2sc(N)c(C#N)c23)n1)[C@H](C)c1cccnc1N [Compound 206, (R)-2′-amino-1-(4-((1-(2-aminopyridin-3-yl)ethyl)(ethyl)amino)-6-((tetrahydro-1H-pyrrolizin-7a(5H)-yl)methoxy)-1,3,5-triazin-2-yl)-6′H-spiro[azetidine-3,4′-thieno[3,4-b]thiophene]-3′-carbonitrile] | > 8.00 | > 8.00 | > 8.00 | 7.00 to 8.00 |
| N#Cc1c(N)sc2c1C1(CC2)CN(c2nc(OC[C@@]34CCCN3C[C@H](F)C4)nc(N3CCCC(O)(CO)C3)n2)C1 (stereo partly drawn) [Compound 85, 2-amino-1′-[4-[3-hydroxy-3-(hydroxymethyl)-1-piperidyl]-6-[[(2R,8S)-2-fluoro-1,2,3,5,6,7-hexahydropyrrolizin-8-yl]methoxy]-1,3,5-triazin-2-yl]spiro[5,6-dihydrocyclopenta[b]thiophene-4,3′-azetidine]-3-carbonitrile] | 7.00 to 8.00 | 6.00 to 7.00 | 4.70 to 6.00 | 4.70 to 6.00 |
| N#CNC1CCCN(c2nc(OC[C@@]34CCCN3C[C@H](F)C4)nc(N3CC4(CCc5sc(N)c(C#N)c54)C3)n2)C1 (stereo partly drawn) [Compound 33, [1-[4-(2-amino-3-cyano-spiro[5,6-dihydrocyclopenta[b]thiophene-4,3′-azetidine]-1′-yl)-6-[[(2R,8S)-2-fluoro-1,2,3,5,6,7-hexahydropyrrolizin-8-yl]methoxy]-1,3,5-triazin-2-yl]-3-piperidyl]cyanamide] | > 8.00 | 7.00 to 8.00 | 6.00 to 7.00 | – |
